According to patent publication US10808128B2, “Compounds as fluorescent probes, synthesis and applications thereof” (priority 2018, dated 2020):
Entries after “also recorded” stand apart in the source; their conditions may differ.

Key:
[1] = UV-Vis and steady state fluorescence of HC-1 in ten solvents; fluorescence quantum yield; type: physicochemical; settings: for Quantum yield: reference Rhodamine B (0.55)
Description: UV-Vis measurement was performed in Shimadzu UV-Vis spectrophotometer (U2600) and steady state fluorescence study was performed in Horiba-Yobin (Fluorolog3) fluorescence spectrophotometer. For all the fluorescence measurements, excitation and emission slits were kept constant at 2 nm (except studies on pH dependence: excitation/emission=2/4 nm respectively). Final concentration was 2.5 μM (except for measurement of fluorescence quantum yield [1 μM] and lifetime [25 μM]) for all the spectroscopic studies.
The HC-1 absorption and fluorescence were recorded in ten solvents of varying polarity and viscosity.
An aqueous solution of Rhodamine B was used as reference. Fluorescence (integrated intensities) and absorbance values were obtained and the quantum yield was calculated using the following equation;
φ and φr: Quantum yield of sample and reference (0.55) respectively; A and Ar: Absorbance of sample and reference respectively; L: path length of the cuvette (here is same); N and Nr: refractive index of the solvents containing sample and reference; I and Ir: Integrated intensity of fluorescence emission of sample and reference respectively.

[2] = test system: mitochondria of U2OS cells; experiment: Imaging of live cell mitochondria by HC-1 and co-localization assay with MitoTracker Green; type: cell-based, human; settings: confocal
Description: For imaging, cells were plated on fibronectin coated (final concentration of 10 μg/ml) glass-bottomed dishes and allowed to attach. […] Cells were then washed twice with DPBS and fresh serum-free media was added.
Co-localization assay of HC-1 using MitoTracker Green: Cells were labeled using both MitoTracker Green and HC-1 dyes (by aforementioned protocol). Confocal images were taken using Olympus FV1000 Confocal microscope (×60 oil immersion objective at 1.6× optical zoom). Excitation parameters used were 488 nm excitation and 500-530 nm emission for MitoTracker Green, and 543 nm excitation and emissions above 560 nm for HCl. Pearson correlation dot plot was constructed using Coloc2 plugin of ImageJ.

[3] = test system: mitochondria of live human primary fibroblasts; experiment: Photo-toxicity study during repeat photo-illumination and fast mitochondrial imaging; type: cell-based; settings: for photostability during fast imaging of mitochondria: human primary fibroblasts, fast time lapse (10 sec interval, 300 seconds)
Source text: Fast (10 sec interval) time lapse images were acquired for 300 seconds.

[4] = test system: E14TG2a mouse embryonic stem cells; experiment: Imaging HC-1 stained mitochondria of embryonic stem cells, incl. long term imaging to check cytotoxicity; type: cell-based; settings: E14TG2a mouse ESCs with LIF
Description: E14TG2a (mouse embryonic stem cells) were cultured in GMEM supplemented with FBS, Glutamine, Non-essential amino acids, β-mercaptoethanol, Penicilin-streptomycin and depending on culture conditions, with or without […] (LIF). […] Images were acquired on the FV1000 confocal microscope. Imaging set up used in the present example was same as the imaging set up used for colocalization described above.
Confocal (FV1000, Olympus) images were acquired for 12 hours at 3 hours interval.

[5] = Effect of pH, ions, serum protein, plasmid DNA and glutathione on HC-1 fluorescence; type: physicochemical; settings: HC-1 2.5 μM
Description: 0.1 M buffers of identical ionic strength solution were used for carryout the experiments. For pH 3, 4, 5 and 5.5, acetate buffer was used, for pH 6.2, 6.9 and 7.4, phosphate buffer was used and for pH 8 and 9.2, Tris-HCl buffer was used. The used salts were Sodium Chloride (NaCl), Potassium Chloride (KCl), Magnesium Chloride (MgCl2), Zinc Chloride (ZnCl2), Nickel Chloride (NiCl2) and Ferric Chloride (FeCl3). Final concentration of the cations (except Zn) was 10 mM and prepared in 1× Phosphate Buffer Saline. For Zn (II), saturated aqueous solution was used. Bovine Serum Albumin (BSA), plasmid DNA and glutathione concentration were at 1 mg−ml^−1, 5 μg−ml^−1 and 10 μM respectively. […] Fluorescence measurement was performed after 30 minutes of incubation.

[6] = test system: mitochondria of U2OS cells; experiment: Effect of CCCP on HC-1 fluorescence (mitochondrial membrane potential); type: cell-based, human; settings: 5 μM CCCP
Description: Effect of Carbonyl Cyanide 3-Chloro Phenylhydrazone [CCCP]: Dye-labeled cells were imaged on the Olympus IX83 inverted microscope coupled to a 560 nm laser line connected to a Evolve 512 Delta EMCCD camera. 5 μM CCCP (final concentration) was used for the assay. Different regions were selected on the dish and imaged before the addition of CCCP and after addition at an interval of about 5 minutes for duration of about 15 minutes.

[7] = test system: primary mouse fibroblasts; experiment: Imaging local order and viscosity of mitochondria during fibroblast activation; type: cell-based; settings: HC-1 250 nM with TMRE 125 nM
Description: A study on the use of HC-1 for imaging local order and viscosity of mitochondria and use of said imaging to measure changes in mitochondrial function and cellular state and function was carried out.

[8] = test system: mitochondria of U2OS cells; experiment: Effect of Monensin on HC-1 stained mitochondria; type: cell-based, human; settings: Monensin 10 µM / 10 μM, 0, 30, 60 minutes
[9] = test system: live human pluripotent stem cells (hPSCs); experiment: Mitochondrial imaging of live pluripotent stem cells; type: cell-based; settings: 250 nM, 30 minutes, confocal
[10] = Stability of dye stock solution; type: physicochemical; settings: 1 mM in 50% DMSO-water, stored at about 4° C.
Description: (§1) Formula I compounds (dyes) are positively charged and can be easily targeted to the mitochondria of the live cells. The dyes are highly specific for functional mitochondria. Localization is confirmed by ‘colocalization’ assays with mitochondria specific commercial dyes and high-resolution microscopy. […] This stock solution was stored at about 4° C.

[11] = test system: mitochondria of human embryonic kidney (HEK) cells; experiment: Effect of CCCP on HC-2 fluorescence; type: cell-based; settings: 5 μM CCCP
Description: as §1

[12] = test system: mitochondria of live HEK 293 cells; experiment: Effect of Monensin on HC-2 stained mitochondria; type: cell-based, human; settings: HC-2 250 nM, Monensin 10 μM, 0-90 minutes
[13] = test system: mitochondria of human primary fibroblast cells; experiment: Colocalization of HC-2 with MitoTracker Green; type: cell-based; settings: live human primary fibroblast cells
Description: as §1

[14] = HC-1 fluorescence in surfactant micelles (SDS, TritonX-100); CMC by sigmoidal fitting; type: physicochemical; settings: from HC-1 (2.5 μM) fluorescence intensity versus surfactant concentration
Description: Initially 300 mM solution of sodium dodecyl sulfate (SDS) in milli-Q water was prepared. Then, solution of varied concentrations (1-300 mM) by serial dilution was prepared. All the prepared solutions were heated at 70° C. for about 15 minutes and stored at room temperature overnight. Similarly, a stock of 10 mM was prepared for TritonX-100 also. Then solution of different concentration (0.05-4 mM) was prepared by serial dilution.

[15] = HC-1 in Ethylene glycol (13.5 cP)
[16] = HC-1 in Glycerol (9.50 cP as printed)

CN(C)c1ccc(/C=C/C2=[N+](C)c3ccc4ccccc4c3C2(C)C)cc1.[I-] [HC-1, (E)-2-(4-(Dimethylamino)styryl)-1,1,3-trimethyl-1H-benzo[e]indol-3-ium iodide] gave a λabs ([1]; HC-1 in Acetone (0.32 cP)) of 553 nm, a λem ([1]; HC-1 in Acetone (0.32 cP)) of 606 nm and a Quantum yield ([1]; HC-1 in Acetone (0.32 cP)) of 0.014 ± 0.0002. For the same compound, the λabs ([1]; HC-1 in Acetonitrile (0.37 cP)) was 577 nm, the λem ([1]; HC-1 in Acetonitrile (0.37 cP)) was 613 nm and the Quantum yield ([1]; HC-1 in Acetonitrile (0.37 cP)) was 0.028 ± 0.0002. The λabs ([1]; HC-1 in Benzene (0.6 cP)) was 548 nm, the λem ([1]; HC-1 in Benzene (0.6 cP)) was 608 nm and the Quantum yield ([1]; HC-1 in Benzene (0.6 cP)) was 0.014 ± 0.0001. The λem ([1]; HC-1 in DCM (0.43 cP)) was 608 nm, the Quantum yield ([1]; HC-1 in DCM (0.43 cP)) was 0.033 ± 0.0005 and the λabs ([1]; HC-1 in DMF (0.85 cP)) was 553 nm. For the same compound, the λem ([1]; HC-1 in DMF (0.85 cP)) was 610 nm, the Quantum yield ([1]; HC-1 in DMF (0.85 cP)) was 0.028 ± 0.0003 and the λabs ([1]; HC-1 in Ethanol (1.2 cP)) was 556 nm. It also gave a λem ([1]; HC-1 in Ethanol (1.2 cP)) of 607 nm, a Quantum yield ([1]; HC-1 in Ethanol (1.2 cP)) of 0.024 ± 0.0002 and a λabs [1, 15] of 562 nm. It also gave a λem [1, 15] of 610 nm, a Quantum yield [1, 15] of 0.087 ± 0.0004 and a λabs [1, 16] of 564 nm. The λem [1, 16] was 610 nm, the Quantum yield [1, 16] was 0.477 ± 0.0005 and the λabs ([1]; HC-1 in Methanol (0.6 cP)) was 552 nm. The λem ([1]; HC-1 in Methanol (0.6 cP)) was 603 nm, the Quantum yield ([1]; HC-1 in Methanol (0.6 cP)) was 0.018 ± 0.0002 and the λabs ([1]; HC-1 in Water (1 cP)) was 542 nm. For the same compound, the λem ([1]; HC-1 in Water (1 cP)) was 605 nm, the Quantum yield ([1]; HC-1 in Water (1 cP)) was 0.034 ± 0.001 and the “2D intensity correlation with MitoTracker Green (Pearson R)” value [2] was 0.95. For the same compound, the “photostability during fast imaging of mitochondria” value (shortened to “photostability during fast imaging”) [3] was “highly photo-stable; also recorded: significantly more photostable”, the “mitochondrial staining of embryonic stem cells” value [4] was “bright staining of the mitochondrial structures” and the “effect of pH on HC-1 emission” value ([5]; 0.1 M buffers pH 3-9.2, small changes at ~pH 3 or ~pH 9) was “little or no effect”. For the same compound, the “effect of metal ions, serum proteins, plasmid DNA and glutathione (GSH) on HC-1 emission” value ([5]; 30 minutes incubation) was “did not significantly affect”, the “effect of CCCP on HC-1 fluorescence” value [6] was “rapid and complete loss of HC-1 fluorescence” and the “change of mitochondrial local ordering in activated fibroblasts” value [7] was “increase in local ordering of the mitochondria”. The “effect of Monensin on HC-1 fluorescence in mitochondria” value [8] was “significant increase in HC-1 fluorescence; also recorded: sensitive to changes in mitochondrial ordering” and the “staining of mitochondria of live hPSCs” value [9] was “uniform staining of the mitochondria”.
In the case of CN(C)c1ccc(/C=C/C=C/C2=[N+](C)c3ccc4ccccc4c3C2(C)C)cc1.[I-] [HC-2, 2-((1E,3E)-4-(4-(Dimethylamino)phenyl)buta-1,3-dien-1-yl)-1,1,3-trimethyl-1H-benzo[e]indol-3-ium iodide], the “photostability during fast imaging” value [3] is reported as “highly photo-stable”, the “stability of stock solution” value [10] is reported as “stable for one year” and the “effect of CCCP on HC-2 fluorescence” value [11] is reported as “loss of HC-2 fluorescence”. The “effect of Monensin on HC-2 fluorescence in mitochondria” value [12] was “time-dependent increase in fluorescence intensity; also recorded: Time dependent increase in fluorescence intensity”, the “2D intensity correlation with MitoTracker Green (Pearson R)” value [13] was 0.91 and the “staining of mitochondria of live hPSCs” value [9] was “uniform staining of the mitochondria”.
With CCCCCCCCCCCCOS(=O)(=O)[O-].[Na+] [SDS, sodium dodecyl sulphate] the “critical micellar concentration (CMC)” value [14] was roughly 7.5 mM.
With TritonX-100 the “critical micellar concentration (CMC)” value [14] was roughly 1 mM.
With “tetramethylrhodamine, ethyl ester [TMRE, reference compound]” the “photo-toxicity during repeat photo-illumination” value [3] was “irradiation induced depolarization of mitochondrial membrane” and the “photostability during fast imaging” value [3] was “photobleaches”.
